From patent publication US9649305B2, “PFKFB3 inhibitor and methods of use as an anti-cancer therapeutic” (ADVANCED CANCER THERAPEUTICS, LLC, priority 2012, dated 2017) come the findings set out here.

The target in data set [1] is PFKFB3 (Homo sapiens, UniProt Q16875). The data set can be described thus: Enzymatic activity of recombinant PFKFB3, ADP-Glo assay. The format is biochemical. How it is done: The inducible bifunctional 6-Phosphofructo-2-kinase/fructose2,6-biphosphatase enzyme (PFKFB3) was expressed and purified in order to determine if PFK-158 inhibits enzymatic activity. PFKFB3 was prepared by expression in E. coli and purified by GST column and column chromatography. […] The recombinant protein was pure and active as determined by the results of a commercially available kinase activity assay (ADP-Glo™, Promega, Madison, Wis.).
In general terms: ADP-Glo turns the ADP formed in a reaction into a luminescent signal.

Data set [2] relates to Jurkat cells. The data set can be described thus: Inhibition of 14C-2-deoxyglucose uptake. The data set is classed as cell-based. Conditions: Homo sapiens, Jurkat cells. The protocol: Inhibition of PFKFB3 results in inhibiting glycolysis. Several feedback or feedforward activation and inhibition mechanisms exist so that, by a feedback mechanism, inhibiting the activity of PFKFB3 might inhibit glucose uptake by cells. An assay was developed to determine if there was inhibition of glucose uptake following exposure PFK-158. Briefly, Jurkat cells were plated at 10^5 cells/mL in RPMI 1640 supplemented with 10% fetal bovine serum and 50 μg/mL gentamicin sulfate. Cells were immediately treated with vehicle or 0.5 μmol/L of PFK-158 for 3 hours and subsequently placed in glucose-free RPMI 1640 for 30 min. ^14C-2-deoxyglucose (0.25 μCi/mL; Perkin Elmer) was added for an additional 60 min and cells were then washed three times with ice-cold RPMI 1640 containing no glucose. Cell lysates were collected in 500 μL of 0.1% SDS and scintillation counts (counts/min) were measured on 400 μL of lysate. Counts were normalized to protein concentration.

Data set [3] concerns A498. Nature of the data set: Cancer cell proliferation, MTT assay. Conditions: Homo sapiens, 48 hours. The data set is classed as cell-based. How it is done:
(§1) The ability of PFK-158 to kill or inhibit the proliferation of cancer cells was measured using either the MTT assay, the alamarBlue® assay (Invitrogen, Grand Island, N.Y.), or the CellTiter Glo™ assay (Promega, Madison, Wis.) using 48 or 72 hours exposure.
(§2) Cells of the desired tumor cell line were plated at 2×10^5 cells/ml in 96 well plates. Twice the indicated concentrations of the compounds of the invention were added to cells the following day in an equal volume of media. 72 hours later, cells were lysed and subjected to ATP determination using the CellTiter-Glo™ Luminescent Cell Viability Assay kit. Experiments were performed in triplicate. When using the MTT assay or the alamarBlue® assay, the experimental conditions are essentially similar; at the end of the incubation period, 20 microliters of the MTT solution is added per well and the samples are incubated for an additional four hours, rinsed, and absorbance at 570 nm was measured. Results for the inhibition of cell proliferation are reported as the IC50 (the concentration resulting in 50% inhibition of proliferation of the cell population) and are listed in Table 5 below. Cell lines include lung, colon, prostate, breast, ovarian, and pancreatic cancer lines.

The subject of data set [4] is A549. Nature of the data set: Cancer cell proliferation, MTT assay. The format is cell-based. Conditions: Homo sapiens, 48 hours. The protocol: as §1, §2
For orientation: Formazan colour is commonly taken as a measure of viable cells.

Data set [5] relates to BT474. The data set can be described thus: Cancer cell proliferation, MTT assay. The format is cell-based. Conditions: Homo sapiens, BT-474, 48 hours. The protocol: as §1, §2
In data set [6] the test system is HCT116. Nature of the data set: Cancer cell proliferation, MTT assay. The format is cell-based. Conditions: Homo sapiens, HCT-116, 48 hours. The protocol:
as §1, §2

The subject of data set [7] is HT29. Nature of the data set: Cancer cell proliferation, MTT assay. The data set is classed as cell-based. Conditions: Homo sapiens, HT-29, 48 hours. The protocol: as §1, §2
Data set [8] deals with MiaPaCa-2. Nature of the data set: Cancer cell proliferation, MTT assay. The data set is classed as cell-based. Conditions: Homo sapiens, MIA PaCa-2; MiaPaCa-2, MTT assay, 48 hours. How it is done: as §1, §2
Data set [9] concerns PC-3. Nature of the data set: Cancer cell proliferation, MTT assay. Conditions: Homo sapiens; PC-3, MTT assay, 48 hours. The format is cell-based. The protocol: as §1, §2
Data set [10] has as its system SK-BR-3. The data set can be described thus: Cancer cell proliferation, MTT assay. Conditions: Homo sapiens; SK-BR-3, MTT assay, 48 hours. The format is cell-based. The protocol:
as §1, §2

Data set [11] relates to SKOV-3. The data set can be described thus: Cancer cell proliferation, MTT assay. The data set is classed as cell-based. Conditions: Homo sapiens, SK-OV-3; SKOV-3, MTT assay, 48 hours. The protocol:
as §1, §2

The test system of data set [12] is SW620. The data set can be described thus: Cancer cell proliferation, MTT assay. The format is cell-based. Conditions: Homo sapiens, SW-620, 48 hours. How it is done: as §1, §2
Data set [13] is described as follows: IV pharmacokinetics in rats, 30 mg/kg. The format is in vivo. Conditions: Table 7, Rat (30 mg/kg), Sprague Dawley rats. The protocol:
The pharmacokinetic (PK) parameters for PFK-158 were determined in mice following IV (intravenous) administration in mice and rats. A typical study design includes six animals (male or female) 7 to 8 weeks old.
Mouse pharmacokinetic properties using a dose of 5 mg/kg were determined after IV administration using a 10% DMSO, 10% PEG-200, 10% Solutol:ethanol (1:1) and 70% D5W solution or any other pharmaceutically acceptable parenteral formulation. Blood samples were collected at different intervals. Plasma samples were extracted and analyzed using an LC-MS/MS method. Similar protocols were used for the rat PK study (Sprague Dawley rats; 30 mg/kg), although the formulation for rat PK studies differed (30% Captisol, pH 3.0 solution). Time vs. plasma concentration plots were prepared as shown in FIGS. 4 (BalbC mice) and 5 (SD rats), respectively. Pharmacokinetic parameters were calculated and are provided below in Table 7.

A short description of data set [14]: Toxicology study in dogs at 40 mg/kg. The data set is classed as in vivo, beagle dogs. The protocol:
In another embodiment, the potential toxicity of PFK-158 (in the form of its dication) was investigated at 40 mg/kg in male and female beagle dogs using a 3 day a week for a total of three weeks dosing regimen. The potential toxicity of PFK-158 was investigated by monitoring all clinical signs during the in-life phase, taking blood and urine samples for full clinical chemistry panels and urinalysis, monitoring body weights and food intake. Gross necropsy and complete histopathology were performed at the time of termination.

Data set [15] in a line: Chemical stability of Cremophor based IV formulation. The data set is classed as physicochemical. Conditions: about 1 mg/ml in Cremophor:ethyl alcohol 1:1 diluted 1:9 in saline, WFI, lactate Ringer's or D5W. The protocol: PFK-158 and its salts can be prepared in a Cremophor® based formulation. In one embodiment, 10 mg PFK-158 are dissolved in 1 ml of 1:1 v:v Cremophor®:ethyl alcohol solution using vigorous stirring. Once the compound is effectively dissolved, the solution is filtered and then added to saline, water for injection, lactate Ringer's, or D5W in a 1:9 ratio, resulting in a clear solution, free from particles, with a PFK-158 concentration of about 1 mg/ml. The composition is chemically stable for at least 6 hours and can be administered to mammals, including humans.

Read-outs that look alike come from different tables or passages of the source.

Sequence of PFKFB3 (Q16875 whole entry): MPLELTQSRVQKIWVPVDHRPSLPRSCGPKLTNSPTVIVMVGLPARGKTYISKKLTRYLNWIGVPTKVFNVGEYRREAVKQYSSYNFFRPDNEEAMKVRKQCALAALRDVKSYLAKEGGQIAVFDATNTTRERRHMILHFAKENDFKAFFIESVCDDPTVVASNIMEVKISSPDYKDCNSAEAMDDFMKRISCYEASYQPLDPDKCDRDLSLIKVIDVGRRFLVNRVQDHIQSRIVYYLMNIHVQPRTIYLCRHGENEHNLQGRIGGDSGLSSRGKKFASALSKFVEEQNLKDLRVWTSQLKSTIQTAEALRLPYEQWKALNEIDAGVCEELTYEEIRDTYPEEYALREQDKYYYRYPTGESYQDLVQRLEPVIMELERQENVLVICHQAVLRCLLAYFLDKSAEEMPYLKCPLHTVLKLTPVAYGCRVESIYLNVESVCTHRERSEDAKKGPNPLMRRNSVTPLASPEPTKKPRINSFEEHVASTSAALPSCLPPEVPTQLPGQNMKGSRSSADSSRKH

What is called IC50 is the midpoint of a concentration-inhibition curve. For orientation: AUC(0-inf) means the area under the concentration-time curve extrapolated to infinity. Lower therefore signals low exposure. In general, Cmax refers to the maximum level reached in the sampled fluid or tissue. For orientation: NOAEL means the highest dose or exposure tested at which no adverse effect was seen. Consider `O=C(/C=C/c1ccc2ccc(C(F)(F)F)cc2n1)c1ccncc1` [PFK-158, (E)-1-(pyridyn-4-yl)-3-(7-(trifluoromethyl)quinolin-2-yl)-prop-2-en-1-one], for which the 50% inhibitory concentration (IC50) amounted to 0.137 ± 0.015 µM in data set [1] (FIG. 1, read-out: IC50, inhibition of recombinant PFKFB3 (ADP-Glo)); 0.137 ± 0.015 µM in data set [1] (Table 1, read-out: IC50, Enzymatic activity of PFKFB3, ADP Glo Assay); 0.137 ± 0.015 µM in data set [1] (Table 6, read-out: IC50 Rec PFKFB3); 0.137 ± 0.015 µM in [1] (Table 8, read-out: IC50, Enzymatic activity of PFKFB3, ADP-Glo Assay); 0.847 ± 0.15 µM in [2] (FIG. 2, 14C-2-deoxyglucose, read-out: IC50, inhibition of glucose uptake); 0.8 ± 0.1 µM in data set [2] (Table 1, read-out: IC50, Inhibition of 2 deoxyglucose uptake). For the same molecule, the IC50 in [2] (Table 6, read-out: IC50 Glucose Uptake) worked out at 0.847 ± 0.15 µM; in [3], 3.51 µM; in data set [4], 8.65 µM; in data set [5] it was 1.95 µM; in [6] it was 3.4 µM; in data set [7], 4.13 µM. In addition, the IC50 was found to be 3.35 µM in [8]; 1.18 µM in [9]; 1.6 µM in [10]; 2.62 µM in data set [11]; 2.67 µM in [12]. For the same molecule, the T1/2b in data set [13] is 8.6 h. Moreover, the area under the curve AUC(0-inf) in [13] (plasma) amounted to 3.3 µg·h/mL. The molecule further gave a Cmax in data set [13] (plasma) of 18.9 µg/mL. Also, the signs of toxicity entry in [14] (beagle dogs, 40 mg/kg three times a week for three weeks) is listed as “no signs of toxicity”. Moreover, the NOAEL at 3 weeks in [14] (both sexes, beagle, dog, in vivo) is 40 mg/kg. The “Human Equivalent Dose (HED) of the NOAEL” value in [14] (dog, in vivo) came to 800 mg/m^2. Besides, the “chemical stability of composition” value in [15] is listed as “at least 6 hours”.
